# Test results from patent US20200010457A1, “TETRAHYDROPYRAN AND TETRAHYDROTHIOPYRAN AMIDE DERIVATIVES HAVING MULTIMODAL ACTIVITY AGAINST PAIN” (ESTEVE PHARMACEUTICALS, S.A., priority 2016, published 2020).
# Target: human σ1 receptor and human μ-opioid receptor
# Assay: Human σ1 receptor ([3H](+)-pentazocine) and human μ-opioid receptor ([3H]-DAMGO) radioligand assays, reported as one combined score
# Type: binding
# Set-up: key to σ1 and μ binding: +: Both Ki-μ and Ki-σ1>=1000 nM; ++: One Ki<1000 nM while the other Ki is >=1000 nM; +++: Both Ki-μ and Ki-σ1<1000 nM; ++++: Both Ki-μ and Ki-σ1<500 nM
# Details: combined class for Ki-σ1 (transfected HEK-293 membranes) and Ki-μ (transfected CHO-K1 cell membranes); for Ki: read-out: σ1 and μ binding
# Description: Human σ1 Receptor Radioligand Assay
# To investigate binding properties of test compounds to human σ1 receptor, transfected HEK-293 membranes and [^3H](+)-pentazocine (Perkin Elmer, NET-1056), as the radioligand, were used. The assay was carried out with 7 μg of membrane suspension, 5 nM of [^3H](+)-pentazocine in either absence or presence of either buffer or 10 μM Haloperidol for total and non-specific binding, respectively. Binding buffer contained Tris-HCl 50 mM at pH 8. Plates were incubated at 37° C. for 120 minutes. After the incubation period, the reaction mix was then transferred to MultiScreen HTS, FC plates (Millipore), filtered and plates were washed 3 times with ice-cold 10 mM TrisHCL (pH7.4). Filters were dried and counted at approximately 40% efficiency in a MicroBeta scintillation counter (Perkin-Elmer) using EcoScint liquid scintillation cocktail.
# Preferably, transfected HEK-293 membranes (7 μg) were incubated with 5 nM of [^3H](+)-pentazocine in assay buffer containing Tris-HCl 50 mM at pH 8. NBS (non-specific binding) was measured by adding 10 μM Haloperidol. The binding of the test compound was measured at five different concentrations. Plates were incubated at 37° C. for 120 minutes. After the incubation period, the reaction mix was then transferred to MultiScreen HTS, FC plates (Millipore), filtered and plates were washed 3 times with ice-cold 10 mM TrisHCL (pH7.4). Filters were dried and counted at approximately 40% efficiency in a MicroBeta scintillation counter (Perkin-Elmer) using EcoScint liquid scintillation cocktail.
# Human μ-Opioid Receptor Radioligand Assay
# To investigate binding properties of test compounds to human μ-opioid receptor, transfected CHO-K1 cell membranes and [^3H]-DAMGO (Perkin Elmer, ES-542-C), as the radioligand, were used. The assay was carried out with 20 μg of membrane suspension, 1 nM of [^3H]-DAMGO in either absence or presence of either buffer or 10 μM Naloxone for total and non-specific binding, respectively. Binding buffer contained Tris-HCl 50 mM, MgCl2 5 mM at pH 7.4. Plates were incubated at 27° C. for 60 minutes. After the incubation period, the reaction mix was then transferred to MultiScreen HTS, FC plates (Millipore), filtered and plates were washed 3 times with ice-cold 10 mM TrisHCL (pH 7.4). Filters were dried and counted at approximately 40% efficiency in a MicroBeta scintillation counter (Perkin-Elmer) using EcoScint liquid scintillation cocktail.
# Preferably, transfected CHO-K1 cell membranes (20 μg) were incubated with 1 nM of [^3H]-DAMGO in assay buffer containing Tris-HCl 50 mM, MgCl2 5 mM at pH 7.4. NBS (non-specific binding) was measured by adding 10 μM Naloxone. The binding of the test compound was measured at five different concentrations. Plates were incubated at 27° C. for 60 minutes. After the incubation period, the reaction mix was then transferred to MultiScreen HTS, FC plates (Millipore), filtered and plates were washed 3 times with ice-cold 10 mM TrisHCL (pH 7.4). Filters were dried and counted at approximately 40% efficiency in a MicroBeta scintillation counter (Perkin-Elmer) using EcoScint liquid scintillation cocktail.
SMILES,Ki [nM],σ1 and μ binding
"CCC(=O)N(CC1(N(C)CCN(Cc2ccccc2)CC(C)C)CCOCC1)c1cccc(C(F)(F)F)n1 [Example 1, N-((4-((2-(Benzyl(isobutyl)amino)ethyl)(methyl)amino)tetrahydro-2H-pyran-4-yl)methyl)-N-(6-(trifluoromethyl)pyridin-2-yl)propionamide]",≥ 1000,
"CCC(=O)N(CC1(N(C)CCN(C)Cc2ccccc2)CCOCC1)c1cccc(C(F)(F)F)n1 [Example 2, N-((4-((2-(benzyl(methyl)amino)ethyl)(methyl)amino)tetrahydro-2H-pyran-4-yl)methyl)-N-(6-(trifluoromethyl)pyridin-2-yl)propionamide]",,++
"CCC(=O)N(CC1(N(C)CCNCC(C)C)CCOCC1)c1cccc(C(F)(F)F)n1 [Example 3, N-((4-((2-(Isobutylamino)ethyl)(methyl)amino)tetrahydro-2H-pyran-4-yl)methyl)-N-(6-(trifluoromethyl)pyridin-2-yl)propionamide]",,++
"CCOCCN(C)CCN(C)C1(CN(C(=O)CC)c2cccc(C(F)(F)F)n2)CCOCC1 [Example 4, N-((4-((2-((2-Ethoxyethyl)(methyl)amino)ethyl)(methyl)amino)tetrahydro-2H-pyran-4-yl)methyl)-N-(6-(trifluoromethyl)pyridin-2-yl)propionamide]",,++
"CCC(=O)N(CC1(CCCNCC(C)C)CCOCC1)c1cccc(C(F)(F)F)n1 [Example 5, N-((4-(3-(Isobutylamino)propyl)tetrahydro-2H-pyran-4-yl)methyl)-N-(6-(trifluoromethyl)pyridin-2-yl)propionamide]",,++
"CCOCCNCCCC1(CN(C(=O)CC)c2cccc(C(F)(F)F)n2)CCOCC1 [Example 6, N-((4-(3-((2-ethoxyethyl)amino)propyl)tetrahydro-2H-pyran-4-yl)methyl)-N-(6-(trifluoromethyl)pyridin-2-yl)propionamide]",< 1000,
"CCC(=O)N(CC1(CCNCC(C)C)CCOCC1)c1cccc(C(F)(F)F)n1 [Example 7, N-((4-(2-(isobutylamino)ethyl)tetrahydro-2H-pyran-4-yl)methyl)-N-(6-(trifluoromethyl)pyridin-2-yl)propionamide]",≥ 1000,
"CCC(=O)N(CC1(CCCN(C)CC(C)C)CCOCC1)c1cccc(C(F)(F)F)n1 [Example 8, N-((4-(3-(isobutyl(methyl)amino)propyl)tetrahydro-2H-pyran-4-yl)methyl)-N-(6-(trifluoromethyl)pyridin-2-yl)propionamide]",,++
"CCOCCN(C)CCCC1(CN(C(=O)CC)c2cccc(C(F)(F)F)n2)CCOCC1 [Example 9, N-((4-(3-((2-ethoxyethyl)(methyl)amino)propyl)tetrahydro-2H-pyran-4-yl)methyl)-N-(6-(trifluoromethyl)pyridin-2-yl)propionamide]",≥ 1000,
